Test results published in patent US8754192B2, “Compositions comprising homogeneously glycosylated erythropoietin” (Sloan-Kettering Institute for Cancer Research, priority 2006, dated 2014).
In brackets after ≈: the same amount, converted by molar mass.

How the values were obtained:
[1] = Solubility of the peptide product in MeOH; assay type: physicochemical; settings: fully protected peptide made with pseudoproline/Dmb dipeptides, 'as high as', read-out: solubility (concentration easily achieved)
Description: To improve the peptide synthesis yields and purities, as well as the solubilities of crude products, we attempted various strategies, including the replacement of the synthesized chlorotrityl resin with commercially available NovaSyn® TGT resin (preloaded with Fmoc-amino acids), the use of Ser/Thr-derived oxazolidines (pseudoprolines) and Dmb (2,4-dimethoxybenzyl)dipeptides, 1, 2, 3 and 4 shown below. While 1, 2 and 4 are available in large scale, 3 had to be prepared from a multistep synthesis. These dipeptides could be incorporated into the growing peptide chain in the same manner as normal amino acids activated by HATU. The synthesis outlined below exploited all the beneficial properties of these strategies and produced […] as determined by LC-MS.

EPO-R = target: T1, EPO-R (Homo sapiens, UniProt P19235); settings: in vitro; compared to rHuEPO; cited from earlier work
T1 sequence (P19235 25-508): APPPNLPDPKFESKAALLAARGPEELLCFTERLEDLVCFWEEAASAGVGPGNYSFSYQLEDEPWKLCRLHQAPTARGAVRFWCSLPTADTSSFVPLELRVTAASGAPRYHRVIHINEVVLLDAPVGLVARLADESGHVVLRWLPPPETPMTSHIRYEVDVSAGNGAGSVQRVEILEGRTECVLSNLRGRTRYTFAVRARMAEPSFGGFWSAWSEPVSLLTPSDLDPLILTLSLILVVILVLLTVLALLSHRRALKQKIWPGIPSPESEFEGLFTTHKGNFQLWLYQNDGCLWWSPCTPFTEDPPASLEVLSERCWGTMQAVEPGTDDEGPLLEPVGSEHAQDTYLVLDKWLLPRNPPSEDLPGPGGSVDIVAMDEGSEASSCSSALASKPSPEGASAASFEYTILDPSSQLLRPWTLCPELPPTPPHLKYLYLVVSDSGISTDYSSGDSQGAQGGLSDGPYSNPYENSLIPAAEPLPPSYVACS

[2] = compared to rHuEPO; cited from earlier work

Row | Compound | solubility [1] [mM] | affinity for the EPO-R (EPO-R) | activity in vivo [2]
1 | COc1ccc(CN(C(=O)[C@H](CC(=O)OCc2ccc(NC(CC(C)C)=C3C(=O)CC(C)(C)CC3=O)cc2)NC(=O)[C@@H](NC(=O)[C@H](Cc2cn(C(c3ccccc3)(c3ccccc3)c3ccccc3)cn2)NC(=O)[C@H](CC(C)C)NC(=O)[C@H](CCC(=O)NC(c2ccccc2)(c2ccccc2)c2ccccc2)NC(=O)[C@H](CC(C)C)NC(=O)[C@@H]2CCCN2C(=O)[C@H](CCC(=O)OCc2ccc(NC(CC(C)C)=C3C(=O)CC(C)(C)CC3=O)cc2)NC(=O)[C@H](Cc2cn(C(=O)OC(C)(C)C)c3ccccc23)NC(=O)[C@@H]2CCCN2C(=O)[C@H](CCC(=O)NC(c2ccccc2)(c2ccccc2)c2ccccc2)NC(=O)[C@H](COC(C)(C)C)NC(=O)[C@@H]2COC(C)(C)N2C(=O)[C@H](CC(=O)OC(C)(C)C)NC(=O)[C@@H](NC(=O)[C@H](CC(C)C)NC(=O)[C@H](CC(C)C)NC(=O)[C@H](C)NC(=O)[C@@H](N)CCC(=O)NC(c2ccccc2)(c2ccccc2)c2ccccc2)C(C)C)C(C)C)[C@@H](CCCCNC(CC(C)C)=C2C(=O)CC(C)(C)CC2=O)C(=O)N[C@@H](C)C(=O)N[C@H](C(=O)N2[C@H](C(=O)NCC(=O)N[C@@H](CC(C)C)C(=O)N[C@@H](CCCNC(=N)NS(=O)(=O)c3c(C)c(C)c4c(c3C)CC(C)(C)O4)C(=O)N[C@@H](COC(C)(C)C)C(=O)N[C@@H](CC(C)C)C(=O)N3[C@H](C(=O)N[C@H](C(=O)N[C@@H](CC(C)C)C(=O)N[C@@H](CC(C)C)C(=O)N[C@@H](CCCNC(=N)NS(=O)(=O)c4c(C)c(C)c5c(c4C)CC(C)(C)O5)C(=O)N[C@@H](C)C(=O)N[C@@H](CC(C)C)C(=O)NCC(=O)O)[C@@H](C)OC(C)(C)C)[C@@H](C)OC3(C)C)COC2(C)C)C(C)C)c(OC)c1 [EPO(78-113)] | 4.6 (≈ 31.3 mg/mL) | – | –
2 | darbepoetin alfa | – | diminished by approximately one-fourth | remained the same
